The subject of test [1] is MC38 or B16.OVA cells. Nature of the test: Single-agent repeated intratumoral injections in mice bearing bilateral tumors. It is filed as in vivo, mouse. Particulars: injected tumor.
From the text: Mouse tumor models. […] Female mice were used at 8-12 weeks of age and housed under specific pathogen-free conditions. The abscopal effect was studied by injecting 4×10^5 MC38 or B16.OVA cells subcutaneously (s.c.) into the right flank of C57BL/6 mice, whereas the left flank received an injection (s.c.) of 2×10^5 (MC38) or 1.25×10^5 (B16.OVA) cancer cells. When right tumors reached a tumor volume of 80-100 mm^3 (approximately one week after tumor inoculation), mice were randomized into different treatment groups.
Evaluation of compounds. […] Control mice received intratumoral injections of PBS containing 5% glucose and/or 5% DMSO (vehicle) as indicated. Treated and untreated tumors were measured twice a week with calipers and the volume was calculated (length×width^2/2). […] When right and left tumors reached a diameter of 80-100 mm, mice were randomized to three groups. […] The control, untreated third-party tumor was untreated in all groups.
Test [2] has as its system circulating cytokines or chemokines. Nature of the test: Circulating cytokines or chemokines after intratumoral treatment. Particulars: systemic. It is filed as in vivo, mouse.

As to `Cc1ccc2c(=O)c3cccc(CC(=O)O)c3oc2c1C` [DMXAA, 5,6-dimethylxanthenone-4-acetic acid], the “response of directly injected tumors to the treatment” value in test [1] was “remarkably responded”. In addition, the “circulating type I Interferons, IL-12, IL-18, TNFalpha (TNFα) and CXCL10” value in test [2] is “either did not cause systemic circulating elevations or only enhanced those observed upon treatment with BO-112”.

These data come from US20220313724A1, “COMPOSITIONS FOR INTRATUMORAL ADMINISTRATION AND RELATED METHODS” (HIGHLIGHT THERAPEUTICS, S.L., priority 2021, published 2022).
